In patent US20090297534A1, “Catalytic Immunoglobulins BBK32 and Uses Therefor” (priority 2005, published 2009):
Where no end group is shown, it is not given here.

Key:
IgM Yvo = test: Irreversible binding of biotinylated phosphonate by IgM Yvo; conditions: probe 500 μM; IgM Yvo 0.1 μM
IgA (serum and salivary) = test: Phosphonate binding: irreversible adducts with IgA, SDS-electrophoresis, streptavidin-peroxidase; conditions: reducing SDS-gels after heating (100° C., 5 min)
IgA = assay type: biochemical, human
Monoclonal IgA (ID 2582) = test: Stoichiometry / active site titration of monoclonal IgA with phosphonate; assay type: biochemical, human; conditions: for x-intercept of residual activity (%) versus [inhibitor]/[IgA] plot: monoclonal IgA 2582 preincubated 18 h with 2.5-20 μM inhibitor, Glu-Ala-Arg-AMC 0.4 mM
[1] = test system: IgA catalyzed gp120 cleavage (salivary IgA, serum IgA); test: Inhibition of IgA catalyzed gp120 cleavage; assay type: biochemical, human
Method: Values are means of duplicates.
FIG. 20B depicts streptavidin-peroxidase stained SDS-gel blots (reducing conditions) showing Bt-gp120 (0.1 μM) incubated in diluent (lane 1) and monoclonal IgA (80 μg/ml, from multiple myeloma subject 2582) in the absence (lane 2) or presence of Glu-Ala-Arg-AMC (lane 3; 0.2 mM). […] FIG. 20C is EP-hapten 3 which is the non-biotinylated version of EP-hapten 1.
In some experiments, the cleavage rate was expressed as the intensity of the 55 kD product band (in AVU, corrected for background intensity observed in reaction mixtures of gp120 incubated in diluent instead of Ab). For cleavage site determination, gp120 was incubated with IgA (pooled from subject codes 2288-2291), the IgA was removed by binding to an anti-human IgA column as described above, and the unbound fraction was lyophilized and redissolved in SDS-electrophoresis buffer containing 2-mercaptoethanol. The gp120 fragments in PVDF blots of SDS-gels were stained with Coomassie blue and subjected to N-terminal sequencing as described previously (33).

[2] = test system: HIV neutralizing activity of CIVIG / IgA; test: Inhibition of immunoglobulin-mediated HIV neutralization by electrophilic peptide; assay type: cell-based, HIV-1; conditions: 100 μM; for Effect on HIV neutralizing activity of serum IgA: 0.5 h preincubation, IgA 2 μg/ml
Method: CIVIGm (FIG. 10A) and CIVGa (FIG. 10B) were incubated for 30 min with gp120 peptide-CRA (100 μM) or diluent, and the residual neutralization activity was determined as in FIG. 9 (CIVIGm, 10 μg/mL; CIVGa, 2 μg/mL).
HIV-1 strain, 97ZA009; host cells, phytohemagglutinin-stimulated PBMCs. Abs were incubated with the virus for 24 h. Values are expressed as percent reduction of p24 concentrations in test cultures compared to cultures that received diluent instead of the Abs (means±s.d. of 4 replicates). […] IgA purified from human serum (2 μg/ml) was preincubated (0.5 h) with EP-421-433 (100 μM), control EP-VIP or diluent, and the residual HIV neutralizing activity measured as in panel A. Data are expressed relative p24 levels observed in the absence of antibody. […] HIV was preincubated with the salivary or serum IgA for 1 h and the neutralizing activity measured as in FIG. 24A.
Covalently reactive analogs (CRAs) of polypeptides have been developed as probes for antibodies. CRAs contain an electrophilic phosphonate analog capable of irreversible binding to nucleophiles present in antibody combining sites. The covalent reaction occurs in coordination with noncovalent antigen-antibody binding, ensuring specificity, and permitting the use of peptidyl CRAs for irreversible and specific binding to the antibodies. One such peptidyl CRA reported is an analog of gp120 residues 421-433 containing the phosphonate at its C terminus (gp120 peptide CRA). This region of gp120 is a component of the superantigenic site of this protein. Neutralization of HIV-1 by CIVIGa and CIVIGm was inhibited by the gp120 peptide CRA, confirming that recognition of the gp120 superantigenic site is required for the neutralizing activity. FIGS. 10A-10B illustrate these findings. CIVIGm and CIVGa were preincubated with the gp120 peptide-CRA or diluent, and the residual neutralization activity was determined as in FIG. 9. An irrelevant peptide CRA, VIP-CRA was employed as the control reagent to rule out nonspecific effects. […]

[3] = 10 μM, bleed 2, conditions as FIG. 22B
[4] = increasing concentrations 10-100 μM

Molecule: N=C(N)c1ccc(C(NC(=O)CCCCCNC(=O)CCCC[C@@H]2SC[C@@H]3NC(=O)N[C@@H]32)P(=O)(Oc2ccccc2)Oc2ccccc2)cc1 (stereo partly shown) [1a, diphenyl N-(6-biotinamidohexanoyl)amino(4-amidinophenyl)methanephosphonate]
- Irreversible reaction with IgM Yvo (IgM Yvo): reacts irreversibly
- Formation of irreversible adducts with IgA (IgA (serum and salivary)): dominant ˜60 kD 1a-adduct of the heavy chain
- Formation of irreversible adducts with IgA (IgA (serum and salivary); listed as EP-hapten 1): formed adducts
- IC50 (IgA): 37 ± 1 µM
- Inhibition of catalytic activity of serum IgA (IgA): inhibited the catalytic activity

Molecule: N=C(N)c1ccc(C(NC(=O)OCc2ccccc2)P(=O)(Oc2ccccc2)Oc2ccccc2)cc1 (stereo not shown) [1b, diphenyl N-(benzyloxycarbonyl)amino(4-amidinophenyl)methanephosphonate]
- x-intercept of residual activity (%) versus [inhibitor]/[IgA] plot (Monoclonal IgA (ID 2582)): 2.5
- x-intercept of residual activity (%) versus [inhibitor]/[IgA] plot (Monoclonal IgA (ID 2582); listed as EP-hapten 3): 2.4
- Inhibitor needed for complete inhibition of 1 mole IgA (Monoclonal IgA (ID 2582); monoclonal IgA, Glu-Ala-Arg-AMC substrate): 2.4 mol

Molecule: N=C(N)c1ccc(C(NC(=O)CCCCCNC(=O)CCCC[C@@H]2SC[C@@H]3NC(=O)N[C@@H]32)P(=O)(O)O)cc1 (stereo partly shown) [hapten 2, N-(6-biotinamidohexanoyl)amino(4-amidinophenyl)methanephosphonic acid]
- Irreversible reaction with IgM Yvo (IgM Yvo): does not react appreciably
- Formation of irreversible adducts with IgA (IgA (serum and salivary)): did not inhibit IgA-catalyzed gp120 cleavage or form adducts

Molecule: EP-421-433: gp120 residues 421-431 with the amidinophosphonate mimetic of residues 432-433 at the C-terminus (KQIINMWQEVG; not fully specified (C-terminus); printed as Lys-Gln-Ile-Ile-Asn-Met-Trp-Gln-Glu-Val-Gly)
- % inhibition of gp120 cleavage by IgA of SP subject 2097 [1, 3]: 89±6%
- % inhibition of gp120 cleavage by IgA of SP subject 2098 [1, 3]: 94±12%
- Inhibition of cleavage of Bt-gp120 by salivary IgA [1, 4]: 21-85%
- Inhibition of cleavage of Bt-gp120 by serum IgA [1, 4]: 41-91%
- Inhibition of HIV-1 neutralization by CIVIGa and CIVIGm ([2]; 30 min preincubation, CIVIGm 10 μg/mL, CIVGa 2 μg/mL): inhibited
- Effect on HIV neutralizing activity of serum IgA [2]: inhibited the neutralizing activity
- Formation of irreversible adducts with IgA (IgA (serum and salivary)): superior irreversible binding

Molecule: EP-VIP: VIP containing the amidinophosphonate at Lys20 side chain; control electrophilic peptide
- % inhibition of gp120 cleavage by IgAs of SP subjects 2097 and 2098 ([1]; equivalent concentration (10 μM) of control probe): < 15%
- Effect on HIV neutralizing activity of serum IgA [2]: minimally influenced
